Laboratory results published in BindingDB's records for doi:10.1016/j.bmcl.2008.12.050 (Merck Research Laboratories, 2009).
Where a name gives a salt, the structure may show the parent alone.

Assay: Antagonist activity at human CCR2 receptor expressed in CHO cells by chemotaxis assay

Row | Compound | IC50
1 | CCCC1COCCC1N[C@@H]1CC[C@@](C(=O)NCc2cc(C(F)(F)F)cc(C(F)(F)F)c2)(C(C)C)C1 (stereo partly drawn) [(1S,3R)-N-(3,5-bis(trifluoromethyl)benzyl)-1-isopropyl-3-(3-propyltetrahydro-2H-pyran-4-ylamino)cyclopentanecarboxamide] | 5.1 nM
2 | CC1COCCC1N[C@@H]1CC[C@@](C(=O)NCc2cc(C(F)(F)F)cc(C(F)(F)F)c2)(C(C)C)C1 (stereo partly drawn) [(1S,3R)-N-(3,5-bis(trifluoromethyl)benzyl)-1-isopropyl-3-(3-methyltetrahydro-2H-pyran-4-ylamino)cyclopentanecarboxamide] | 0.1 nM
3 | CC(C)[C@]1(C(=O)NCc2cc(C(F)(F)F)cc(C(F)(F)F)c2)CC[C@@H](NC2CCOCC2C(F)(F)F)C1 (stereo partly drawn) [(1S,3R)-N-(3,5-bis(trifluoromethyl)benzyl)-1-isopropyl-3-(3-(trifluoromethyl)tetrahydro-2H-pyran-4-ylamino)cyclopentanecarboxamide] | 1 nM

Next, values leading:

Row | IC50 | Compound
4 | 0.3 nM | CCC1COCCC1N[C@@H]1CC[C@@](C(=O)NCc2cc(C(F)(F)F)cc(C(F)(F)F)c2)(C(C)C)C1 (stereo partly drawn) [(1S,3R)-N-(3,5-bis(trifluoromethyl)benzyl)-3-(3-ethyltetrahydro-2H-pyran-4-ylamino)-1-isopropylcyclopentanecarboxamide]
5 | 3.3 nM | CC(C)[C@]1(C(=O)NCc2cc(C(F)(F)F)cc(C(F)(F)F)c2)CC[C@@H](NC2COC2)C1 [(1S,3R)-N-(3,5-bis(trifluoromethyl)benzyl)-1-isopropyl-3-(oxetan-3-ylamino)cyclopentanecarboxamide trifluoroacetate]
6 | 0.8 nM | CC(C)[C@]1(C(=O)NCc2cc(C(F)(F)F)cc(C(F)(F)F)c2)CC[C@@H](NC2CCOCC2F)C1 (stereo partly drawn) [(1S,3R)-N-(3,5-bis(trifluoromethyl)benzyl)-3-(3-fluorotetrahydro-2H-pyran-4-ylamino)-1-isopropylcyclo pentanecarboxamide]
